Laboratory results: patent US8492378B2, “GSK-3β inhibitor” (Takeda Pharmaceutical Company Limited, priority 2006, dated 2013)

How the values were obtained:
Experiment in all cases: Serine threonine kinase inhibitory activity ([γ-33P]ATP)
Assay type in all cases: biochemical
[1] = molecular target: GSK-3β (Homo sapiens, UniProt P49841); settings: [γ-33P]ATP kinase panel; read-out: IC50 values against GSK-3β
Experimental: Inhibitory action on various purified proteins of serine, threonine kinases (p38α, JNK1, IKKβ, ASK1, TAK1, MEKK1, PKCθ, GSK-3β, PLK1, TTK, Aurora A, MEK1, MEK5, B-RAF, ERK1) was examined. As a reaction mixture, 37.5 μL of 25 mM HEPES (pH 7.5), 10 mM magnesium acetate, 1 mM DTT, each concentration of purified protein and a synthesis substrate were used. The mixture was reacted in the presence or absence of a test compound (2.5 μL/the reaction mixture) dissolved in DMSO at each concentration at room temperature for 5 min. […] After quenching the reaction, the amount of phosphorylated peptide was measured by Top-Count (Packard).

[2] = molecular target: TAK1 (Homo sapiens, UniProt O43318); settings: read-out: 50% inhibitory activity against other kinases: TAK1
Sequence of TAK1 (O43318 whole entry): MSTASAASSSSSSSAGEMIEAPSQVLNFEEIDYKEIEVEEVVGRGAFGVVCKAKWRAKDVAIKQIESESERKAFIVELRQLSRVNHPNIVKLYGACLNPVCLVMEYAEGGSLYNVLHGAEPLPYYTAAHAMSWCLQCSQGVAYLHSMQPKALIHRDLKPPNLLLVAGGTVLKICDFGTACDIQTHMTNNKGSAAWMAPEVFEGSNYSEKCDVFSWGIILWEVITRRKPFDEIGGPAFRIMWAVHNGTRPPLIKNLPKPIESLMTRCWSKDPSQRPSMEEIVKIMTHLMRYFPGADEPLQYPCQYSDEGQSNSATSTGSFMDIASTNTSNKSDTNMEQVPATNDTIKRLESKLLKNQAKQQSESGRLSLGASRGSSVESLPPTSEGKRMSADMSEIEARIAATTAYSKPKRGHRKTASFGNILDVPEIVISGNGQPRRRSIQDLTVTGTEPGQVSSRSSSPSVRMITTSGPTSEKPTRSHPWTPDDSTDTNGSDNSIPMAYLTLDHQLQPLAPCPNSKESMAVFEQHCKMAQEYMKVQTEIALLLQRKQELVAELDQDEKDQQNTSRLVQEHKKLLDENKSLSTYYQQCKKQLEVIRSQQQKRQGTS
Sequence of TAK1 (Q15750 whole entry, further chain): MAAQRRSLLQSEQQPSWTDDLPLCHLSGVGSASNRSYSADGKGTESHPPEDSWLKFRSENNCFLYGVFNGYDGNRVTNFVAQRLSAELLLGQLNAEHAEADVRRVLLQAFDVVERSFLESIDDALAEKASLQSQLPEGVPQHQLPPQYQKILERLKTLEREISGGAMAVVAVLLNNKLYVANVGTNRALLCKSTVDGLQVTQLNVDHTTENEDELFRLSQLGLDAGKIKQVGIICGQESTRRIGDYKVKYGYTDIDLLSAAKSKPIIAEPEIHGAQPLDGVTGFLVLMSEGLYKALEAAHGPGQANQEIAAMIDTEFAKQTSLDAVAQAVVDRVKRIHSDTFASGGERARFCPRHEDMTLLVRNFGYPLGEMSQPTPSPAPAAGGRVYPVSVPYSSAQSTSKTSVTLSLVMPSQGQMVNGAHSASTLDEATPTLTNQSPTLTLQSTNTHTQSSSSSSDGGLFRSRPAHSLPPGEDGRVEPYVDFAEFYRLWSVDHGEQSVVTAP
Experimental: (§1) Inhibitory action on various purified proteins of serine, threonine kinases (p38α, JNK1, IKKβ, ASK1, TAK1, MEKK1, PKCθ, GSK-3β, PLK1, TTK, Aurora A, MEK1, MEK5, B-RAF, ERK1) was examined. As a reaction mixture, 37.5 μL of 25 mM HEPES (pH 7.5), 10 mM magnesium acetate, 1 mM DTT, each concentration of purified protein and a synthesis substrate were used. The mixture was reacted in the presence or absence of a test compound (2.5 μL/the reaction mixture) dissolved in DMSO at each concentration at room temperature for 5 min. Further, 10 μL of a mixture of 2.5 μM ATP and 10 μCi/ml [γ-^33P]ATP (DAIICHI PURE CHEMICALS) was added and the mixture was reacted at room temperature for 30 min. After quenching the reaction, the amount of phosphorylated peptide was measured by Top-Count (Packard). The concentration of the test compound necessary for 50% inhibition (IC50 value) was calculated by PRISM 3.0 (GraphPad Software).

[3] = molecular target: ERK1 (Homo sapiens, UniProt P27361); settings: read-out: 50% inhibitory activity against other kinases: ERK1
Experimental: as §1

[4] = molecular target: MEK1 (Homo sapiens, UniProt Q02750); settings: read-out: 50% inhibitory activity against other kinases: MEK1
Experimental: as §1

[5] = molecular target: T1, TTK (Homo sapiens, UniProt P33981); settings: read-out: 50% inhibitory activity against other kinases: TTK
T1 sequence (P33981 1-857): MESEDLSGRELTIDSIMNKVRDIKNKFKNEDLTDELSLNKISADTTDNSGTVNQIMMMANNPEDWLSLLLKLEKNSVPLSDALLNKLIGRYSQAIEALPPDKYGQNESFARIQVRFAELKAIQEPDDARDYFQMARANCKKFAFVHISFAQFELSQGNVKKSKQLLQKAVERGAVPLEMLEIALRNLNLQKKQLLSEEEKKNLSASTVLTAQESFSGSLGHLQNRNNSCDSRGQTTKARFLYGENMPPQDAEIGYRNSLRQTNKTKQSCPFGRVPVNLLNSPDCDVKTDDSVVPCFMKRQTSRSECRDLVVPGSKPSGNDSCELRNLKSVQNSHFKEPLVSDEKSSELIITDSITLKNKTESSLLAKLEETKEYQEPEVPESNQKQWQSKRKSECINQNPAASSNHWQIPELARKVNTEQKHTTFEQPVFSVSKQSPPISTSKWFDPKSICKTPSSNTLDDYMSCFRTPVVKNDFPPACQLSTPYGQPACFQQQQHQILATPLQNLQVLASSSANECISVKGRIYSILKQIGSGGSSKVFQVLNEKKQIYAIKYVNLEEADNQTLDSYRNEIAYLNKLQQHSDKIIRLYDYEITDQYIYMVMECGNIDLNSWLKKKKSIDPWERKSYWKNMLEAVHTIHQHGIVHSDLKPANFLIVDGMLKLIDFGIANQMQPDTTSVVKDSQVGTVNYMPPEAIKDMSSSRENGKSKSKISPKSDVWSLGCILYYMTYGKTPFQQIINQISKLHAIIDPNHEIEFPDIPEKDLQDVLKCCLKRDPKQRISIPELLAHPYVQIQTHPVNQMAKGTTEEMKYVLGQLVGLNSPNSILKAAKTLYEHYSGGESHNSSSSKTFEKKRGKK
Experimental: as §1

[6] = molecular target: B-RAF (Homo sapiens, UniProt P15056); settings: read-out: 50% inhibitory activity against other kinases: B-RAF
Sequence of B-RAF (P15056 whole entry): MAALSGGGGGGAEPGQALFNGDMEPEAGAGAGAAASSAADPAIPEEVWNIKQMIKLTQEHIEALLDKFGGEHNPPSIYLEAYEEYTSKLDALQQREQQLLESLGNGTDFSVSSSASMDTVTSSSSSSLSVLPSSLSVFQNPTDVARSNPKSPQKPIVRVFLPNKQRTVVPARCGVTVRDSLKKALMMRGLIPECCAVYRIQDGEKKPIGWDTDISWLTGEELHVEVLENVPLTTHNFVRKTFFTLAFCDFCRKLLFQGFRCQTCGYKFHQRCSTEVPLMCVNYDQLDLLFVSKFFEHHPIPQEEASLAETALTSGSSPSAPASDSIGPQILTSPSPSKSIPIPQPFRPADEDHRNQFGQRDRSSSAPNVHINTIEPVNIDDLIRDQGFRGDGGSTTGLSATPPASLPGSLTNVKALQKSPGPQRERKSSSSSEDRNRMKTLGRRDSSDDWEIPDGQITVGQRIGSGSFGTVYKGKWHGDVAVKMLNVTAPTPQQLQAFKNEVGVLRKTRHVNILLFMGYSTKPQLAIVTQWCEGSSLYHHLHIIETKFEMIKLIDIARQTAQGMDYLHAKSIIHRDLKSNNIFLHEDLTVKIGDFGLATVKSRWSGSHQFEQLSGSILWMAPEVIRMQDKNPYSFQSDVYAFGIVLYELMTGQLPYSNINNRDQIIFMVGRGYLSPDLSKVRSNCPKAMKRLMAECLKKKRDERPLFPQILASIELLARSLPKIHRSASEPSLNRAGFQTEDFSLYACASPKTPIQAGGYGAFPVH
Experimental: as §1

[7] = molecular target: p38α (Homo sapiens, UniProt Q16539); settings: read-out: 50% inhibitory activity against other kinases: p38α
Experimental: as §1

[8] = molecular target: MEK5 (Homo sapiens, UniProt Q13163); settings: read-out: 50% inhibitory activity against other kinases: MEK5
Experimental: as §1

[9] = molecular target: ASK1 (Homo sapiens, UniProt Q99683); settings: read-out: 50% inhibitory activity against other kinases: ASK1
Sequence of ASK1 (Q99683 whole entry): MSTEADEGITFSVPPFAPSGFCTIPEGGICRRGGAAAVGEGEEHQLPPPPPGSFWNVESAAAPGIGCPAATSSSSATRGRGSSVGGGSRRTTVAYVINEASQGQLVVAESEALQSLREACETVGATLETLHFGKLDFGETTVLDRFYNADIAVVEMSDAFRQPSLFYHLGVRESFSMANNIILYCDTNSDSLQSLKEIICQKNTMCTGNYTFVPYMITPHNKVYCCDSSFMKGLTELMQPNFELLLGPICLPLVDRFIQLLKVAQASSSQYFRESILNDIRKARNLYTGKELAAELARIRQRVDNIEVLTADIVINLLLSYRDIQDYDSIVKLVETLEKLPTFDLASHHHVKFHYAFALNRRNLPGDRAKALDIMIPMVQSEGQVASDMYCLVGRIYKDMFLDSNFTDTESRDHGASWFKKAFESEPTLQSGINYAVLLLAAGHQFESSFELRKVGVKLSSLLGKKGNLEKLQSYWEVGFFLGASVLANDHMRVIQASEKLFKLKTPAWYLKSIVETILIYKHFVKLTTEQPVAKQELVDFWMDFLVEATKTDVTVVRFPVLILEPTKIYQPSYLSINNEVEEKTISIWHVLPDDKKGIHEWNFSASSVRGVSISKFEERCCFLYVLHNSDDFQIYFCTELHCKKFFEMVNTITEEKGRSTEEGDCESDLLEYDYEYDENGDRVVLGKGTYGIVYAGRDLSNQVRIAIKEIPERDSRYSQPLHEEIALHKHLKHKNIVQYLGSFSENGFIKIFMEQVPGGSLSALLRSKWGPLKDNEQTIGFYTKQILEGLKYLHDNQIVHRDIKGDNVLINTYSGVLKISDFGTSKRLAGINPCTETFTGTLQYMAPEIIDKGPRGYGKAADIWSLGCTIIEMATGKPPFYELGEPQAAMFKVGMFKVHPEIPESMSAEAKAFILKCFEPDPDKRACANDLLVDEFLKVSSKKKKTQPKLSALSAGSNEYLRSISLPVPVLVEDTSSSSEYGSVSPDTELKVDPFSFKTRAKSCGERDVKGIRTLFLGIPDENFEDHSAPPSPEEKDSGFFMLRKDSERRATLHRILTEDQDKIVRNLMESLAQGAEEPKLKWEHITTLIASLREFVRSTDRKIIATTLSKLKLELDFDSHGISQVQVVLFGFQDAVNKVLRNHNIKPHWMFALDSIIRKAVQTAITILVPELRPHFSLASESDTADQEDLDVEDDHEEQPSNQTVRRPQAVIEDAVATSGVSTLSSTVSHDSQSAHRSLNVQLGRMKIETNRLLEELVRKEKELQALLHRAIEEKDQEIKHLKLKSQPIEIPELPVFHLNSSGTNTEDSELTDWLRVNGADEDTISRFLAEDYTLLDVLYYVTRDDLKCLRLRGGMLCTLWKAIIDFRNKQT
Experimental: as §1

[10] = molecular target: JNK1 (Homo sapiens, UniProt P45983); settings: read-out: 50% inhibitory activity against other kinases: JNK1
Sequence of JNK1 (P45983 whole entry): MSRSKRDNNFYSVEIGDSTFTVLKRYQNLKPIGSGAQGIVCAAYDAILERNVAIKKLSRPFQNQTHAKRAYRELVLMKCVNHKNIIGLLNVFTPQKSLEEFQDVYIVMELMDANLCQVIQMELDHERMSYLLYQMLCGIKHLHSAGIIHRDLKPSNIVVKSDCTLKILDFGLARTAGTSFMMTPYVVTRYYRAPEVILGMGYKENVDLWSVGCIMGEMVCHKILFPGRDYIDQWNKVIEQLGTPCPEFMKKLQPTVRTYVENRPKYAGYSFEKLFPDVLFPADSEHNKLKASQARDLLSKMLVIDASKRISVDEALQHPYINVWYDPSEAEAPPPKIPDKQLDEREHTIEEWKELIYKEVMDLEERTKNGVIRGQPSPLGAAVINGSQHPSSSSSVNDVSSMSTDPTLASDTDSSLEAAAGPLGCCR
Experimental: as §1

[11] = molecular target: T2, IKKβ (Homo sapiens, UniProt O14920); settings: read-out: 50% inhibitory activity against other kinases: IKKβ
T2 sequence (O14920 1-756): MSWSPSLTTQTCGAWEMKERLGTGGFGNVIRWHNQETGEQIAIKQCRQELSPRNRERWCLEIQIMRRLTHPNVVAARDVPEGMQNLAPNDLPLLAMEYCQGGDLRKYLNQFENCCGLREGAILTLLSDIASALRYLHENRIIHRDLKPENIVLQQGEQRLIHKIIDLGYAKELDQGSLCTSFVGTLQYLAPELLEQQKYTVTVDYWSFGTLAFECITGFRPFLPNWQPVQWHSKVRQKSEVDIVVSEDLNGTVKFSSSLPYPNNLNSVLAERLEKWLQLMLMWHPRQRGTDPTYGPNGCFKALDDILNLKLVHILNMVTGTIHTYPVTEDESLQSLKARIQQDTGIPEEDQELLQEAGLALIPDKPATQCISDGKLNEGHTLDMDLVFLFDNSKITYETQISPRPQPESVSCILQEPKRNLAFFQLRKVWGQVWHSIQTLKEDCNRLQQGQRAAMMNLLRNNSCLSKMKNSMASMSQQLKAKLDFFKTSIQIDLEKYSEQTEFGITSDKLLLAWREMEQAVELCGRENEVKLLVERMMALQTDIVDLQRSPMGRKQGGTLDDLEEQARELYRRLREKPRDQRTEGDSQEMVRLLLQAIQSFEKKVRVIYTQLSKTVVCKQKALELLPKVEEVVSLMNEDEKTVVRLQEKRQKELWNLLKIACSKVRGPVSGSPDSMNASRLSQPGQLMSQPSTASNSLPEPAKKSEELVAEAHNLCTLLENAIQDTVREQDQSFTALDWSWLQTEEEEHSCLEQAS
Experimental: as §1

[12] = molecular target: MEKK1 (Homo sapiens, UniProt Q13233); settings: read-out: 50% inhibitory activity against other kinases: MEKK1
Experimental: as §1

[13] = molecular target: PKCθ (Homo sapiens, UniProt Q04759); settings: read-out: 50% inhibitory activity against other kinases: PKCθ
Sequence of PKCθ (Q04759 whole entry): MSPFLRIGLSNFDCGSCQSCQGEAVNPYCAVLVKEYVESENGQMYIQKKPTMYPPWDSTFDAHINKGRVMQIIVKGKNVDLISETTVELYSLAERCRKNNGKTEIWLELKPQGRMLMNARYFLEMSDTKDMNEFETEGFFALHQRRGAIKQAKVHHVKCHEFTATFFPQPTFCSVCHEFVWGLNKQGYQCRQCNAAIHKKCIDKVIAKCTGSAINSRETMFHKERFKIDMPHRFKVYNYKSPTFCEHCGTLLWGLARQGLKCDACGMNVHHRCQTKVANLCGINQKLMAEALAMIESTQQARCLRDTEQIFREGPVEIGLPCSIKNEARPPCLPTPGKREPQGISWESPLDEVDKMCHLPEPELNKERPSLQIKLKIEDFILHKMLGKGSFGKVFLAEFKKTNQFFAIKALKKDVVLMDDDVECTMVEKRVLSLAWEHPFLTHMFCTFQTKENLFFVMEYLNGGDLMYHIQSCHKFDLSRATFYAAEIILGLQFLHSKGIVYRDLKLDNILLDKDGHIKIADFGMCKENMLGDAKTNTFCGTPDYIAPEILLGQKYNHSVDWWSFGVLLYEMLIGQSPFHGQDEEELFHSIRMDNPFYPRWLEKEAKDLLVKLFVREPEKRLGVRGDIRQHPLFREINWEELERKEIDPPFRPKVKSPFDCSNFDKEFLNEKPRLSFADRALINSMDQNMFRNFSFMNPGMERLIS
Experimental: as §1

[14] = molecular target: PLK1 (Homo sapiens, UniProt P53350); settings: read-out: 50% inhibitory activity against other kinases: PLK1
Experimental: as §1

[15] = molecular target: Aurora A (Homo sapiens, UniProt O14965); settings: read-out: 50% inhibitory activity against other kinases: Aurora A
Sequence of Aurora A (O14965 whole entry): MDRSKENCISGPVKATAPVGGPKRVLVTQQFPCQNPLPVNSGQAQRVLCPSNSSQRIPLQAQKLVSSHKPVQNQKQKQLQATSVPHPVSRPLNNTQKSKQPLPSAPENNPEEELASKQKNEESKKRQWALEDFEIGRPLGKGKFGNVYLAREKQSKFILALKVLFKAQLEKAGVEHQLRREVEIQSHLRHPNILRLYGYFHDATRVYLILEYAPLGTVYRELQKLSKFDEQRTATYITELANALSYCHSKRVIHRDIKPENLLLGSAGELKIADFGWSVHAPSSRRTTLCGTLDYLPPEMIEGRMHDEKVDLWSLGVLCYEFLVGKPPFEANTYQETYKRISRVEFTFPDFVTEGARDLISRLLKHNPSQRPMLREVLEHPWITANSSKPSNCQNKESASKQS
Experimental: as §1

| Compound | IC50 [1] [µM] | IC50 [2] [µM] | IC50 [3] [µM] | IC50 [4] [µM] | IC50 [5] [µM] | IC50 [6] [µM] | IC50 [7] [µM] | IC50 [8] [µM] | IC50 [9] [µM] | IC50 [10] [µM] | IC50 [11] [µM] | IC50 [12] [µM] | IC50 [13] [µM] | IC50 [14] [µM] | IC50 [15] [µM] |
| --- | --- | --- | --- | --- | --- | --- | --- | --- | --- | --- | --- | --- | --- | --- | --- |
| COc1ccc(-c2coc3ccc(-c4nnc(SC)o4)cc23)cc1 [Example 165, 2-[3-(4-methoxyphenyl)-1-benzofuran-5-yl]-5-(methylthio)-1,3,4-oxadiazole] | 0.19 | > 10 | > 10 | > 10 | > 10 | > 10 | > 10 | > 10 | > 10 | > 10 | > 10 | > 10 | > 10 | > 10 | > 10 |
| COc1ccc(CSc2nnc(-c3ccnc(N)c3)o2)cc1F [Example 209, 4-[5-[(3-fluoro-4-methoxybenzyl)thio]-1,3,4-oxadiazol-2-yl]pyridin-2-amine] | 0.14 | > 10 | > 10 | > 10 | > 10 | > 10 | > 10 | > 10 | > 10 | > 10 | > 10 | > 10 | > 10 | > 10 | > 10 |
| COc1ccc(CSc2nnc(-c3ccc4c(c3)OCO4)o2)cc1F [Reference Example 71, 2-(1,3-benzodioxol-5-yl)-5-[(3-fluoro-4-methoxybenzyl)thio]-1,3,4-oxadiazole, reference compound] |  | > 10 | > 10 | > 10 | > 10 | > 10 | > 10 | > 10 | > 10 | > 10 | > 10 | > 10 | > 10 | > 10 | > 10 |
